Holding throughout (format): biochemical
For one test, the target named is T1, cyclin B-Cdk1 (Homo sapiens, UniProt P06493).
T1 construct: made in house; host or cells: insect cell Sf9 (baculovirus)
Briefly: Cdk1 (Cdc2) inhibitory action: cyclin B-Cdk1 kinase activity. The settings on record: cyclin B-Cdk1, 50 μM ATP. From the text:
(§1) The cDNA of Cdk1, and the cDNA of a fusion protein of cyclin B, an activating factor of Cdk1, and glutathione S-transferase, were integrated into a baculovirus expression vector to prepare a recombinant baculovirus. This was co-transfected into insect cell Sf9 to express an active complex of the cyclin B/glutathione S-transferase fusion protein-Cdk1 at a high level. The cells were recovered and solubilized, then the active complex was adsorbed onto Glutathione Sepharose, and a cyclin B-Cdk1 active complex was recovered using Precision Protease and was purified by HPLC column chromatography.
For the measurement of the activity of cyclin B-Cdk1, a synthetic peptide (Ala-Lys-Ala-Lys-Lys-Thr-Pro-Lys-Lys-Ala-Lys-Lys) was used as the substrate.
(§2) The reaction was performed by partially modifying the method of Kitagawa et al. [Oncogene, Vol. 7, 1067-1074 (1992)]. The volume of the reaction solution was 21.1 μL, and to the R buffer, purified cyclin B-Cdk1, 100 μM of the substrate peptide, 50 μM of non-labeled adenosine triphosphate (ATP), and 1 μCi of [γ-33P]-labeled ATP (2000 to 4000 Ci/mmole) were added to react at 30° C. for 30 minutes. Then, 10 μL of 350 mM phosphate buffer was added to the reaction system to terminate the reaction. The substrate peptide was adsorbed onto P81 paper filter on a 96-well plate, and then washed several times with 75 mM phosphate buffer. The radioactivity of the substrate peptide was measured with a liquid scintillation counter.
(§3) Addition of the compound according to the invention to the reaction system was carried out by first preparing a dilution series of solutions of the compound in dimethylsulfoxide (DMSO), and adding 1.1 μL of the dilutions. A control was provided by adding 1.1 μL of DMSO to the reaction system.
A representative compound of the compounds according to the invention was selected, and the IC50 value of this compound for the cyclin B-Cdk1 activity was determined.

The next test deals with T2, cyclin D2-Cdk6 (Homo sapiens, UniProt Q00534).
T2 construct: made in house; host or cells: insect cell Sf9 (baculovirus)
Nature of the test: Cdk6 inhibitory action: cyclin D2-Cdk6 kinase activity. To be noted: for IC50: cyclin D2-Cdk6, 50 μM ATP; for K1/K6, selectivity for Cdk6 against Cdk1: IC50 of Cdk1 divided by IC50 of Cdk6; for K2/K6, selectivity for Cdk6 against Cdk2: IC50 of Cdk2 divided by IC50 of Cdk6; for K5/K6, selectivity for Cdk6 against Cdk5: IC50 of Cdk5 divided by IC50 of Cdk6; for K7/K6, selectivity for Cdk6 against Cdk7: IC50 of Cdk7 divided by IC50 of Cdk6; for K9/K6, selectivity for Cdk6 against Cdk9: IC50 of Cdk9 divided by IC50 of Cdk6.
Excerpt: as §1, with “In the same manner as in the case of cyclin D2-Cdk4, the cDNA” for “The cDNA”, “of Cdk6,” for “of Cdk1,”, “cyclin D2,” for “cyclin B,”, “cyclin D2/glutathione” for “cyclin B/glutathione”, “fusion protein-Cdk6” for “fusion protein-Cdk1”, “cyclin D2-Cdk6” for “cyclin B-Cdk1 active”
For the measurement of the activity of cyclin D2-Cdk6, a synthetic peptide (Arg-Pro-Pro-Thr-Leu-Ser-Pro-Ile-Pro-His-Ile-Pro-Arg) was used as the substrate.
as §2, with “cyclin D2-Cdk6,” for “cyclin B-Cdk1,”, “for 40” for “for 30”
as §3
A representative compound of the compounds according to the invention was selected, and the IC50 value of this compound for the cyclin D2-Cdk6 activity was determined.

The target of a further test is T3, cyclin H-Cdk7 (Homo sapiens, UniProt P50613).
T3 construct: made in house; host or cells: insect cell Sf9 (baculovirus)
Nature of the test: Cdk7 inhibitory action: cyclin H-Cdk7 kinase activity. The settings on record: cyclin H-Cdk7, 50 μM ATP.
Excerpt: The cDNA of Cdk7, and the cDNA of a fusion protein of cyclin H, an activating factor of Cdk7, and glutathione S-transferase, were integrated into a baculovirus expression vector to prepare a recombinant baculovirus. This was co-transfected into insect cell Sf9 to express an active complex of the cyclin H/glutathione S-transferase fusion protein-Cdk7 at a high level. The cells were recovered and solubilized, then the active complex was adsorbed onto Glutathione Sepharose, and a cyclin H-Cdk7 active complex was recovered using Precision Protease.
For the measurement of the activity of cyclin H-Cdk7, a synthetic peptide ([…] was used as the substrate.
as §2, with “cyclin H-Cdk7, 25” for “cyclin B-Cdk1, 100”, “for 45” for “for 30”
as §3
A representative compound of the compounds according to the invention was selected, and the IC50 value of this compound for the cyclin H-Cdk7 activity was determined.

T1 sequence (P06493 whole entry): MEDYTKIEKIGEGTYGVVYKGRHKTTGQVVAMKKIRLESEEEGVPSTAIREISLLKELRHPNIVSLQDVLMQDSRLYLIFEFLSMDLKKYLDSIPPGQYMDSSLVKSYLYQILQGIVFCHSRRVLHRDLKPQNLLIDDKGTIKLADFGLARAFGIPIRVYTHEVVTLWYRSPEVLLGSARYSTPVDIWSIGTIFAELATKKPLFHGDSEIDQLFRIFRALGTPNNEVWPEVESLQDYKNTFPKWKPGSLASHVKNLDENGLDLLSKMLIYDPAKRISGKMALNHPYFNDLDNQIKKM
T1 sequence (P14635 whole entry partner): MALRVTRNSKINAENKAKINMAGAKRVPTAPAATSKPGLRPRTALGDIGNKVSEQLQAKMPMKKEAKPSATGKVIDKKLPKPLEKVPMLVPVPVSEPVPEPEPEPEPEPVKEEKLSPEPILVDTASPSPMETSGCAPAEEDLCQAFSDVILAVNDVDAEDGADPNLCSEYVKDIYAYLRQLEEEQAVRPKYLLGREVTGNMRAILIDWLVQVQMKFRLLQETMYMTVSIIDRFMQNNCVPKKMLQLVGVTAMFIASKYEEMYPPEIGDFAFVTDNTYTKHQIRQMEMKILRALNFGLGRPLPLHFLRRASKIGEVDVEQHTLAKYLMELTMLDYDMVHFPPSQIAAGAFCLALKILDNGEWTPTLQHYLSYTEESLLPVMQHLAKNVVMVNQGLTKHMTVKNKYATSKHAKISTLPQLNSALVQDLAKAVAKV
T2 sequence (Q00534 whole entry): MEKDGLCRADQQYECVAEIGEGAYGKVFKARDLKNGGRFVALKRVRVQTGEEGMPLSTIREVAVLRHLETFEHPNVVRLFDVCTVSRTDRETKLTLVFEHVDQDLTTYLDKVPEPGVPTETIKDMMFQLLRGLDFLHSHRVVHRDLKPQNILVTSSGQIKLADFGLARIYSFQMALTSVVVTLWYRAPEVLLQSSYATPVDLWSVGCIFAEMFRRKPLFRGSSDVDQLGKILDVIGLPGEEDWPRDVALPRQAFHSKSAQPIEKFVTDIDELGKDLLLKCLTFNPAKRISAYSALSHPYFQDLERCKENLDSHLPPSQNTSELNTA
T2 sequence (P30279 whole entry partner): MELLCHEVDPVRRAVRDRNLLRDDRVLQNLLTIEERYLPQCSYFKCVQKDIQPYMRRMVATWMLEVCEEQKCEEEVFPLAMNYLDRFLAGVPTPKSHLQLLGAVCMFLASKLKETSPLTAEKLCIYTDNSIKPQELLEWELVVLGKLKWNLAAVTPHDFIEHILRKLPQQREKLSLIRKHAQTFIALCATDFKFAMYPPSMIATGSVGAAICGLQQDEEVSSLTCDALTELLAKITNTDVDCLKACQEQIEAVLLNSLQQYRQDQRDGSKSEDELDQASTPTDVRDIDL
T3 sequence (P50613 whole entry): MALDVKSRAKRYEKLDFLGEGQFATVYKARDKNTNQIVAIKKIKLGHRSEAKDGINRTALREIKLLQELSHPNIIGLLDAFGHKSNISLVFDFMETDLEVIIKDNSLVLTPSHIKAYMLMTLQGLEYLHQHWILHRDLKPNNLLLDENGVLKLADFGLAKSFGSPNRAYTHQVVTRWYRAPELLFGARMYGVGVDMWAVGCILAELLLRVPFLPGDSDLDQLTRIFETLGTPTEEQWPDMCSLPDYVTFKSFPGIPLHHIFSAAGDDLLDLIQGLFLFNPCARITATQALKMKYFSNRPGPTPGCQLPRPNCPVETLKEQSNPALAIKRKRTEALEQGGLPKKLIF
T3 sequence (P51946 whole entry partner): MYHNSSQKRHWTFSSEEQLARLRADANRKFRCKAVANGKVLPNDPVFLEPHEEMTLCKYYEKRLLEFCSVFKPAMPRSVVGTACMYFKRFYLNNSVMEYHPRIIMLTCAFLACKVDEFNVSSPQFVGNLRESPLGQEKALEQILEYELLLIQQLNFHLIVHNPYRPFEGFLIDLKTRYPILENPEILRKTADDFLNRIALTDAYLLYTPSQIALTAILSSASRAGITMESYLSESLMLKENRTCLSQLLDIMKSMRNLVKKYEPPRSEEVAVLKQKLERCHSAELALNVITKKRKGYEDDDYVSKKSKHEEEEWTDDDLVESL

In the case of `Cc1cc(-c2cnc(Nc3cnc(CN4CCC(N(C)C)C4)cn3)s2)nc(SC2CCCCC2)n1` (stereo not shown) [Example 94, 5-[2-(cyclohexylthio)-6-methyl-4-pyrimidinyl]-2-[5-(3-dimethylamino-1-pyrrolidinyl)methyl-2-pyrazinyl]amino-1,3-thiazole], the IC50 was determined as 920 nM at cyclin B-Cdk1, 16 nM on cyclin D2-Cdk6 and 91 nM against cyclin H-Cdk7.
For `Cc1cc(-c2cnc(Nc3ccc(CN4CCC[C@H]4CO)cn3)s2)nc(NC2CCCCC2)n1` [Example 137, (2S)-5-[2-(cyclohexylamino)-6-methyl-4-pyrimidinyl]-2-[5-(2-hydroxymethyl-1-pyrrolidinyl)methyl-2-pyridyl]amino-1,3-thiazole], half-maximal inhibition on cyclin B-Cdk1 (IC50) was put at 1200 nM. On cyclin D2-Cdk6, the “K1/K6, selectivity for Cdk6 against Cdk1” value was 57; the “K2/K6, selectivity for Cdk6 against Cdk2” value came out at 214; the “K5/K6, selectivity for Cdk6 against Cdk5” value was found to be 143; the “K7/K6, selectivity for Cdk6 against Cdk7” value turned out to be 57. In addition, at cyclin D2-Cdk6, the “K9/K6, selectivity for Cdk6 against Cdk9” value stood at 52 and the IC50 stood at 21 nM. It took 1200 nM to reach half-maximal inhibition against cyclin H-Cdk7 (IC50).
`Cc1cc(-c2cnc(Nc3cnc(CN4CCN(C)CC4)cn3)s2)nc(OC2CCCCC2)n1` [Example 1, 5-[2-(cyclohexyloxy)-6-methyl-4-pyrimidinyl]-2-[5-(4-methyl-1-piperazinyl)methyl-2-pyrazinyl]amino-1,3-thiazole] gave an IC50 against cyclin B-Cdk1 of 600 nM. For the same molecule, on cyclin D2-Cdk6, the “K1/K6, selectivity for Cdk6 against Cdk1” value came to 77; the “K2/K6, selectivity for Cdk6 against Cdk2” value is given as 218; the “K5/K6, selectivity for Cdk6 against Cdk5” value is 385; the “K7/K6, selectivity for Cdk6 against Cdk7” value was 68. Moreover, at cyclin D2-Cdk6, the “K9/K6, selectivity for Cdk6 against Cdk9” value was determined as 321 and the IC50 amounted to 7.8 nM. Also, at cyclin H-Cdk7, the half-maximal inhibitory concentration (IC50) was 530 nM.
Take `Cc1cc(-c2cnc(Nc3cnc(CN4CCCC4)cn3)s2)nc(SC2CCCCC2)n1` [Example 93, 5-[2-(cyclohexylthio)-6-methyl-4-pyrimidinyl]-2-[5-(1-pyrrolidinyl)methyl-2-pyrazinyl]amino-1,3-thiazole]: the IC50 against cyclin B-Cdk1 came out at 870 nM; on cyclin D2-Cdk6, 7.3 nM; on cyclin H-Cdk7, 140 nM.
For `Cc1cc(-c2cnc(Nc3cnc(CNC(C)C)cn3)s2)nc(SC2CCCCC2)n1` [Example 96, 5-[2-(cyclohexylthio)-6-methyl-4-pyrimidinyl]-2-[5-(isopropylamino)methyl-2-pyrazinyl]amino-1,3-thiazole], the concentration for half-maximal inhibition (IC50) against cyclin B-Cdk1 came to 560 nM; against cyclin D2-Cdk6, 9.3 nM; at cyclin H-Cdk7, 160 nM.
The molecule `Cc1cc(-c2cnc(Nc3cnc(CNCCO)cn3)s2)nc(SC2CCCCC2)n1` [Example 99, 5-[2-(cyclohexylthio)-6-methyl-4-pyrimidinyl]-2-[5-(2-hydroxyethylamino)methyl-2-pyrazinyl]amino-1,3-thiazole] showed an IC50 against cyclin H-Cdk7 of 120 nM.
As for `Cc1cc(-c2cnc(Nc3cnc(CN4CCC(N(C)C)C4)cn3)s2)nc(OC2CCCCC2)n1` (stereo not shown) [Example 13, 5-[2-(cyclohexyloxy)-6-methyl-4-pyrimidinyl]-2-[5-(3-dimethylamino-1-pyrrolidinyl)methyl-2-pyrazinyl]amino-1,3-thiazole], on cyclin B-Cdk1, 620 nM corresponded to half-maximal inhibition (IC50). Moreover, at cyclin D2-Cdk6, the “K1/K6, selectivity for Cdk6 against Cdk1” value is given as 48; the “K2/K6, selectivity for Cdk6 against Cdk2” value was 65; the “K5/K6, selectivity for Cdk6 against Cdk5” value is recorded as 200; the “K7/K6, selectivity for Cdk6 against Cdk7” value was determined as 28. Also, at cyclin D2-Cdk6, the “K9/K6, selectivity for Cdk6 against Cdk9” value turned out to be 33 and the half-maximal inhibitory concentration (IC50) worked out at 13 nM. The IC50 at cyclin H-Cdk7 worked out at 370 nM.
`CC(=O)N1CCN(Cc2ccc(Nc3ncc(-c4cc(C)nc(OC5CCCCC5)n4)s3)nc2)CC1` [Example 125, 5-[2-(cyclohexyloxy)-6-methyl-4-pyrimidinyl]-2-[5-(4-acetyl-1-piperazinyl)methyl-2-pyridyl]amino-1,3-thiazole]: the 50% inhibitory concentration (IC50) on cyclin B-Cdk1 came to 1200 nM; against cyclin D2-Cdk6, 17 nM; on cyclin H-Cdk7, 370 nM.
Regarding `Cc1cc(-c2cnc(Nc3cnc(CN4CCN(C)CC4)cn3)s2)nc(NC2CCCCC2)n1` [Example 55, 5-[2-(cyclohexylamino)-6-methyl-4-pyrimidinyl]-2-[5-(4-methyl-1-piperazinyl)methyl-2-pyrazinyl]amino-1,3-thiazole], the IC50 stood at 750 nM at cyclin B-Cdk1, 5.1 nM against cyclin D2-Cdk6 and 460 nM on cyclin H-Cdk7.
For `Cc1cc(-c2cnc(Nc3cnc(CN4CCN(C)CC4)cn3)s2)nc(Sc2ccccc2Cl)n1` [Example 109, 5-[2-(2-chlorophenylthio)-6-methyl-4-pyrimidinyl]-2-[5-(4-methyl-1-piperazinyl)methyl-2-pyrazinyl]amino-1,3-thiazole], the IC50 against cyclin B-Cdk1 came out at 430 nM; against cyclin D2-Cdk6, 18 nM; against cyclin H-Cdk7 it was 280 nM.

The term IC50 denotes the concentration that gives 50% inhibition.

The values above are taken from patent publication US7709475B2, “Selective inhibitors against Cdk4 and Cdk6 having aminothiazole skeleton” (Banyu Pharmaceutical Co., Ltd., priority 2004, dated 2010).
